Test results taken from patent publication US11286231B2, “Hydrogen-bonding compounds, compositions comprising the same, and methods of preparing and using the same” (Wake Forest University Health Sciences, priority 2016, dated 2022).

Columns and labels:
[1] = Oscillatory shear-stress sweep test, shear elastic modulus G′ of HyStem hydrogels; type: physicochemical
Protocol: To a 2 mL centrifuge tube, 200 μL of Heprasil® solution (1% w/v solution, thiolated HA component of HyStem kit), 200 μL of Gelin-S® solution (1% w/v, thiolated gelatin component of HyStem kit), 50 μL of Extralink® solution (2% w/v, polyethylene glycol diacrylate component of HyStem kit), and 50 μL of a modular catecholamine (C1.1) or amide […] solutions (0.25%-1.5% w/v, see Rheology section for specifics) were added and mixed by softly pipetting the solution up and down carefully to avoid creating bubbles. For control experiments the modular catecholamide or amine solutions were replaced with an equivalent volume of sterile deionized water. For rheology or cell culture studies, the reaction mixture was placed into wells of an appropriate size and exposed to UV radiation (˜222 nm) for 1-5 seconds.
A Discovery HR-2 Rheometer (TA Instruments, New Castle, Del.) with an 8 mm geometry was used to collect the rheological data. After reaction set-up, 200 μL of the reaction mixture was transferred into a 12 mm diameter×5 mm depth PDMS well. The PDMS well containing the reaction mixture was then exposed to UV radiation for 5 seconds at a distance of 1 cm. Photo-initiated polymerization and formation of a hydrogel occurred instantaneously. To ensure standard conditions across all experiments the geometry was lowered into the gels until a calibration normal force of 0.4N was achieved. Following, an oscillatory shear-stress sweep test (0.6-10.0 Pa, 1.0 Hz, 25° C.) was applied to hydrogels containing varying concentrations (0%, 1.0%, and 1.5% w/v) of modular amine compounds, C1.1 and C1.2. This experiment was repeated in triplicate for each condition. Average shear elastic modulus, G′, values were determined for each condition.
Shear-stress sweep tests (0.6-10.0 Pa, 1.0 Hz, 25° C.) were applied to hydrogels containing varying solution concentrations (0%, 1.0%, and 1.5% WAV) of modular amine compounds, C1.1/C1.2. Reported here are the average shear elastic modulus G′ values for n=3 runs for each condition (FIGS. 3 and 4). The reported uncertainties were calculated from standard deviations between n=3 averaged G′ values of each condition. In FIG. 3 we report the following G′ values: (2.136×10^3+/−3.988×10^2) Pa for the HyStem® control, (3.166×103+/−6.772×10^2) Pa for the HyStem®+1% w/v catecholamine, and (3.648×103+/8.047×102) Pa for the HyStem®+1.5% w/v catecholamine. […] Thus it was observed that when increasing the % w/v of the catecholamine (C1.1) solution used from 0% w/v, 1% w/v, 1.5% w/v, a proportional increase in G′ was observed, i.e., 1 equivalent of C1.1=1000 Pa increase in G′ and 1.5 equivalent=1500 Pa increase in the G′ of the hydrogel matrix.

Caco-2 = assay: 2D 7-day MTS assay, cell proliferation on hydrogels; type: cell-based; conditions: Caco-2, 2D on hydrogel, days 1, 4, 7, 490 nm, FIG. 7
Protocol: (§1) At the proper confluency, the plates were washed with 10 mL of DPBS followed by an addition of 5 mL of trypsin and a 5 min incubation time at 37° C. Upon the conclusion of the incubation time light microscopy was used to determine that the cells had become detached. 5 mL of DMEM-10-1 was added to the plate and the trypsin/DMEM mixture was transferred into a 15 mL conical tube. A 1:4:5 ratio of cell mixture/DMEM-10-1/trypan blue was created in a 2.0 mL cryogenic vial. The mixture contained ˜1.2×10^5 cells-mL-1. The cells were pelleted down by centrifugation at 1500 rpm for 5 minutes and the trypsin/DMEM mixture was aspirated. The cells were resuspended in 10 mL of DMEM-10-1. For the MTS assay, 3.0×10^4 cells per well were seeded (In total 2.43×10^6 cells are needed for 81 wells). In each well (n=3 per time point) of a 96 well plate 16 μL of Heprasil® ([…], 1% w/v), 16 μL of Gelatin-S® (10 mg-mL-1, 1% w/v), 4 μL of Extralink® (5 mg 0.250 μL-1, 2% w/v), and 4 μL of modular catecholamine ([…], 3.6 mM, 1% w/v), C1.1 and C1.2, respectively were mixed by gently pipetting the solution up and down. The wells were then exposed to UV radiation (˜222 nm) for 3 seconds at distance of 1 cm to initiate crosslinking and form the hydrogel matrix. Approximately 30,000 cells were seeded per well; 200 μL of DMEM+10% FBS+1% pen-strep media at a density of 1.2×10^5 cells-mL-1 were aliquoted into each well, Caco-2 and HepG2 cell lines, respectively. A total of 27 wells per time point (3 per condition-positive control, catecholamine (C1.1), and catecholamide (C1.2) for each cell line, Caco-2 and HepG2. For the 3D cell cultural technique and amount of cells used in the live/dead assay refer to the Live/Dead Assay section.
(§2) The MTS assay is widely-used as a nonradioactive quantification of cellular proliferation, viability, and cytotoxicity.28 The MTS assay based on the reduction of MTS tetrazolium compound by viable cells to generate a colored formazan product that is soluble in cell culture media. This conversion is thought to be carried out by NAD(P)H-dependent dehydrogenase enzymes in metabolically active cells. MTS assays were performed using a CellTiter 96® AQueous One Solution Cell Proliferation Assay (G3582, Promega) at days 1, 4, 7. […] At the conclusion of the 45-minute incubation period a Molecular Device SpectraMax M5 plate reader was used to determine the optical density of each well monitored at 490 nm. […] Reported uncertainties were calculated using the standard deviations between the normalized OD values for n=3 runs of each condition.
(§3) In addition to Live/Dead assays, MTS assays were used to quantify the proliferation of cells. In this case, the ability for cells to proliferate in 2D when seeded on the hydrogels was assessed.

HepG2 = assay: as above; type: cell-based; conditions: HepG2, 2D on hydrogel, days 1, 4, 7, 490 nm, FIG. 7
Protocol: as §1, §2, §3

Structure (SMILES)	increase in G′ vs HyStem control ([1]; 1.0% w/v compound solution)	increase in G′ over gels containing 1.0% w/v C1.1 ([1]; 1.5% w/v C1.1 solution)	increase in G′ vs HyStem control ([1]; 1.5% w/v compound solution)	cell proliferation, normalized optical density (MTS) compared to control (Caco-2)	cell proliferation, normalized optical density (MTS) compared to control (HepG2)	higher increase in G′ over gels containing 1.0% w/v C1.1 solution ([1]; 1.0% w/v C1.2 solution)	shear elastic modulus G′ ([1]; Hystem + 1.0% w/v compound solution, n=3)
C#CCNCc1ccc(O)c(O)c1 [Compound C1.1]	~1.029×10^3+/−3.280×10^1 Pa	477 pa	1.512×10^3+/−3.469×10^1 Pa	higher	higher	–	–
C#CCNC(=O)Cc1ccc(O)c(O)c1 [Compound C1.2]	~1.817×10^3+/−2.457×10^1 Pa	–	1.989×10^3+/−1.378×10^1 Pa	higher	higher	788 Pa	3.953×10^3+/−1.160×10^2 Pa
